# Assay results published in US10981926B2 (Janssen Pharmaceutica NV, priority 2016, dated 2021).
# Experiments:
# [1] = molecular target: T1, wild-type Androgen Receptor (AR-wt) (Homo sapiens (Human), UniProt P10275); experiment: LNCaP-AR-wt AG reporter assay (agonist mode); type: cell-based; conditions: for EC50: agonist mode, pEC50 = −Log10(EC50 in Molar), read-out: LNCaP-AR-wt AG pEC50 (converted); for Emax: maximum % stimulation (agonist response) over the tested concentration range, read-out: LNCaP-AR-wt AG MAX % Stim
# [2] = molecular target: T2, F876L mutant Androgen Receptor (AR-F876L) (Homo sapiens (Human), UniProt P10275, F877L); experiment: LNCaP-AR-F876L AG reporter assay (agonist mode); type: cell-based; conditions: for EC50: agonist mode, pEC50 = −Log10(EC50 in Molar), read-out: LNCaP-AR-F876L AG pEC50 (converted); for Emax: maximum % stimulation (agonist response) over the tested concentration range, read-out: LNCaP-AR-F876L AG MAX % Stim
# [3] = molecular target: T2, F876L mutant Androgen Receptor (AR-F876L); experiment: LNCaP-AR-F876L ANT reporter assay (antagonist mode); type: cell-based; conditions: for IC50: antagonist mode, pIC50 = −Log10(IC50 in Molar), read-out: LNCaP-AR-F876L ANT pIC50 (converted); for Emax: maximum % inhibition of R1881 control response over the tested concentration range, read-out: LNCaP-AR-F876L ANT MAX % Inh
# [4] = molecular target: T1, wild-type Androgen Receptor (AR-wt); experiment: LNCaP-AR-wt ANT reporter assay (antagonist mode); type: cell-based; conditions: for IC50: antagonist mode, pIC50 = −Log10(IC50 in Molar), read-out: LNCaP-AR-wt ANT pIC50 (converted); for Emax: maximum % inhibition of R1881 control response over the tested concentration range, read-out: LNCaP-AR-wt ANT MAX % Inh
# rGABA-gated Cl− channel = experiment: GABA-Gated Cl Channel Antagonist Radioligand Binding Assay; design: species or system rat; conditions: 10 μM single point, [35S]-TBPS, cerebral cortex membrane homogenates
# Procedure, shortened: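 Values give percent inhibition of control specific […] (3 nM) binding at a single 10 μM compound concentration. Cerebral cortex membranes, 120 min, 22° C, phosphate buffer pH 7.4 with 500 mM NaCl; 20 μM picrotoxinin sets nonspecific binding; filtration and scintillation read-out.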
# T2 sequence (P10275 whole entry F877L): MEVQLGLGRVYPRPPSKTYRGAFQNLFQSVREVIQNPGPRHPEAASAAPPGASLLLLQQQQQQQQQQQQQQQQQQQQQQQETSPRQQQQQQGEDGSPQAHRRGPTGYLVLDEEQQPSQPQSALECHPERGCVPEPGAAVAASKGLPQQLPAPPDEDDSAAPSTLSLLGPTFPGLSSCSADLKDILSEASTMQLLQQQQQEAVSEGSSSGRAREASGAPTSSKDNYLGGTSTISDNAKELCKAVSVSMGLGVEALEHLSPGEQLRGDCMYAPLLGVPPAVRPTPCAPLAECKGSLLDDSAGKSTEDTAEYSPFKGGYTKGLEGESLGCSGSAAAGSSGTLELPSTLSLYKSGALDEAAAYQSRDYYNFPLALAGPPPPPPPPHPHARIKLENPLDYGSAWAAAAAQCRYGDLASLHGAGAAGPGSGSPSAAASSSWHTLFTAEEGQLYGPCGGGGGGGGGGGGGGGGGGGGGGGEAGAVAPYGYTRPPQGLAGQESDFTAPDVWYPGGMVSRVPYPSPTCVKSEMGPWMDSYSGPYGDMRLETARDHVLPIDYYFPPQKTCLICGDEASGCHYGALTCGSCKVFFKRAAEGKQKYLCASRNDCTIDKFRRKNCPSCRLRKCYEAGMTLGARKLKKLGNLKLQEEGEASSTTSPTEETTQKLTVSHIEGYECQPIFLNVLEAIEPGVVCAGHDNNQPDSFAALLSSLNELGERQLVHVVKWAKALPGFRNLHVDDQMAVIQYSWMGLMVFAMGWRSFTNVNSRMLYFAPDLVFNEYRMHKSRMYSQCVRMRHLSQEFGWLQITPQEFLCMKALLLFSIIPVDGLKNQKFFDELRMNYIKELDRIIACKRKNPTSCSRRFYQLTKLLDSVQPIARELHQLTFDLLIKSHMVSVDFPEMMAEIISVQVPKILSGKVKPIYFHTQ
# T1 sequence (P10275 whole entry): as the sequence (P10275 whole entry F877L) above, with L877F counted along it
SMILES,EC50 [1] [nM],Emax [1] [%],EC50 [2] [nM],Emax [2] [%],IC50 [3] [nM],Emax [3] [%],IC50 [4] [nM],Emax [4] [%],rGABA-gated Cl− channel % inh @10 μM (rGABA-gated Cl− channel) [%]
"CN1CC2(CC(Oc3ccc(N4C(=S)N(c5cnc(C#N)c(C(F)(F)F)c5)C(=O)C45CCC5)cc3)C2)C1 [Cpd 97, 5-[8-[4-[(6-methyl-6-azaspiro[3.3]heptan-2-yl)oxy]phenyl]-5-oxo-7-thioxo-6,8-diazaspiro[3.4]octan-6-yl]-3-(trifluoromethyl)pyridine-2-carbonitrile]",> 15100,0,> 15100,0.2,25.1,99.9,55,102,4.0
"COCCN1CCC(Oc2ccc(N3C(=S)N(c4cnc(C#N)c(C)c4)C(=O)C34CCC4)cn2)CC1 [Cpd 98, 5-[8-[6-[[1-(2-methoxyethyl)-4-piperidyl]oxy]-3-pyridyl]-5-oxo-7-thioxo-6,8-diazaspiro[3.4]octan-6-yl]-3-methyl-pyridine-2-carbonitrile]",> 15100,0.3,> 15100,0.1,20.9,100,46.8,101,−7.6
"Cc1cc(N2C(=O)C3(CCC3)N(c3ccc(OC4CCN(CCO)CC4)nc3)C2=S)cnc1C#N [Cpd 100, 5-[8-[6-[[1-(2-hydroxyethyl)-4-piperidyl]oxy]-3-pyridyl]-5-oxo-7-thioxo-6,8-diazaspiro[3.4]octan-6-yl]-3-methyl-pyridine-2-carbonitrile]",> 15100,0.1,> 15100,0.5,58.9,98.9,162,100,2.3
"C#CCN1CCC(Oc2ccc(N3C(=S)N(c4cnc(C#N)c(C(F)(F)F)c4)C(=O)C34CCC4)cn2)CC1 [Cpd 104, 5-[5-oxo-8-[6-[(1-prop-2-ynyl-4-piperidyl)oxy]-3-pyridyl]-7-thioxo-6,8-diazaspiro[3.4]octan-6-yl]-3-(trifluoromethyl)pyridine-2-carbonitrile]",> 15100,0.5,> 15100,0.7,41.7,99.6,69.2,101,98.9
"N#Cc1ncc(N2C(=O)C3(CCC3)N(c3ccc(OCCN4CC5(COC5)C4)cc3)C2=S)cc1C(F)(F)F [Cpd 105, 5-[8-[4-[2-(6-oxa-2-azaspiro[3.3]heptan-2-yl)ethoxy]phenyl]-5-oxo-7-thioxo-6,8-diazaspiro[3.4]octan-6-yl]-3-(trifluoromethyl)pyridine-2-carbonitrile]",> 15100,0.1,> 15100,0.8,66.1,97.6,123,100,23.9
"C#CCN1CCC(Oc2ccc(N3C(=S)N(c4cnc(C#N)c(C(F)(F)F)c4)C(=O)C34CCC4)cc2)CC1 [Cpd 107, 5-[5-oxo-8-[4-[(1-prop-2-ynyl-4-piperidyl)oxy]phenyl]-7-thioxo-6,8-diazaspiro[3.4]octan-6-yl]-3-(trifluoromethyl)pyridine-2-carbonitrile]",> 15100,0.5,> 15100,1.9,24.5,97.5,22.9,101,87.2
"N#Cc1ncc(N2C(=O)C3(CCC3)N(c3ccc4c(c3)CCNC4)C2=S)cc1C(F)(F)F [Cpd 108, 5-(8-oxo-5-(1,2,3,4-tetrahydroisoquinolin-6-yl)-6-thioxo-5,7-diazaspiro[3.4]octan-7-yl)-3-(trifluoromethyl)picolinonitrile]",> 15100,0.7,> 15100,0.2,1020,94.8,1660,98.3,17.1
"CN1CCC(n2ncc3cc(N4C(=S)N(c5cnc(C#N)c(C(F)(F)F)c5)C(=O)C45CCC5)ccc32)CC1 [Cpd 109, 5-[8-[1-(1-methyl-4-piperidyl)indazol-5-yl]-5-oxo-7-thioxo-6,8-diazaspiro[3.4]octan-6-yl]-3-(trifluoromethyl)pyridine-2-carbonitrile]",> 15100,0,> 15100,0.2,1350,98.8,2820,96.1,20.6
"N#Cc1ncc(N2C(=O)C3(CCC3)N(c3ccc(OC4CCCO4)cc3)C2=S)cc1C(F)(F)F (stereo not drawn) [Cpd 111, 5-[5-oxo-8-(4-tetrahydrofuran-2-yloxyphenyl)-7-thioxo-6,8-diazaspiro[3.4]octan-6-yl]-3-(trifluoromethyl)pyridine-2-carbonitrile]",> 15100,0.8,> 15100,0.4,117,101,132,101,2.8
"N#Cc1ncc(N2C(=O)C3(CCC3)N(c3ccc(C4=C[C@@H](O)[C@H](O)CO4)cc3)C2=S)cc1C(F)(F)F [Cpd 112, 5-(5-(4-((3R,4R)-3,4-dihydroxy-3,4-dihydro-2H-pyran-6-yl)phenyl)-8-oxo-6-thioxo-5,7-diazaspiro[3.4]octan-7-yl)-3-(trifluoromethyl)picolinonitrile]",> 15100,0.3,> 15100,0.2,282,100,269,102,99.1
"N#Cc1ncc(N2C(=O)C3(CCC3)N(c3ccc4nn(C5CCNCC5)cc4c3)C2=S)cc1C(F)(F)F [Cpd 115, 5-[5-oxo-8-[2-(4-piperidyl)indazol-5-yl]-7-thioxo-6,8-diazaspiro[3.4]octan-6-yl]-3-(trifluoromethyl)pyridine-2-carbonitrile]",> 15100,-0.1,> 15100,0.1,288,104,575,87,40.0
"N#Cc1ncc(N2C(=O)C3(CCC3)N(c3ccc4c(cnn4C4CCNCC4)c3)C2=S)cc1C(F)(F)F [Cpd 119, 5-[5-oxo-8-[1-(4-piperidyl)indazol-5-yl]-7-thioxo-6,8-diazaspiro[3.4]octan-6-yl]-3-(trifluoromethyl)pyridine-2-carbonitrile]",> 15100,0.1,> 15100,2.7,195,100,537,102,43.1
"CN1CCC(Cn2cc3cc(N4C(=S)N(c5cnc(C#N)c(C(F)(F)F)c5)C(=O)C45CCC5)ccc3n2)CC1 [Cpd 129, 5-[8-[2-[(1-methyl-4-piperidyl)methyl]indazol-5-yl]-5-oxo-7-thioxo-6,8-diazaspiro[3.4]octan-6-yl]-3-(trifluoromethyl)pyridine-2-carbonitrile]",> 15100,0.9,> 15100,0.1,36.3,100,77.6,102,64.0
"CC(=O)N1CCC(n2ncc3cc(N4C(=S)N(c5cnc(C#N)c(C(F)(F)F)c5)C(=O)C45CCC5)ccc32)CC1 [Cpd 131, 5-[8-[1-(1-acetyl-4-piperidyl)indazol-5-yl]-5-oxo-7-thioxo-6,8-diazaspiro[3.4]octan-6-yl]-3-(trifluoromethyl)pyridine-2-carbonitrile]",> 15100,-0.1,> 15100,0.3,708,97.9,589,101,97.4
"Cn1cc(N2C(=S)N(c3cnc(C#N)c(C(F)(F)F)c3)C(=O)C23CCC3)ccc1=O [Cpd 133, 5-(5-(1-methyl-6-oxo-1,6-dihydropyridin-3-yl)-8-oxo-6-thioxo-5,7-diazaspiro[3.4]octan-7-yl)-3-(trifluoromethyl)picolinonitrile]",> 15100,0.7,> 15100,0.6,977,99,1580,98.3,−8.5
